# Test results published in patent US10758534B2 (Vertex Pharmaceuticals Incorporated, priority 2014, dated 2020).
# Target: T1, F508del (Homo sapiens, UniProt P13569, DEL508-508)
# T1 construct: expressed in transfected cells
# Test: Protocol 1: membrane potential optical assay (FLIPR III, voltage sensing dye), identification of potentiator compounds
# Assay type: cell-based
# Conditions: Table 3, compounds of Table 1
# How it was run: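 Membrane potential in forskolin-activated, temperature-rescued F508del NIH 3T3 cells is followed with a voltage-sensing dye on FLIPR III. A chloride ion gradient created at the single addition step provides the driving force, after prior compound treatment.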
# T1 sequence (P13569 with tags, fused parts or gaps DEL508-508): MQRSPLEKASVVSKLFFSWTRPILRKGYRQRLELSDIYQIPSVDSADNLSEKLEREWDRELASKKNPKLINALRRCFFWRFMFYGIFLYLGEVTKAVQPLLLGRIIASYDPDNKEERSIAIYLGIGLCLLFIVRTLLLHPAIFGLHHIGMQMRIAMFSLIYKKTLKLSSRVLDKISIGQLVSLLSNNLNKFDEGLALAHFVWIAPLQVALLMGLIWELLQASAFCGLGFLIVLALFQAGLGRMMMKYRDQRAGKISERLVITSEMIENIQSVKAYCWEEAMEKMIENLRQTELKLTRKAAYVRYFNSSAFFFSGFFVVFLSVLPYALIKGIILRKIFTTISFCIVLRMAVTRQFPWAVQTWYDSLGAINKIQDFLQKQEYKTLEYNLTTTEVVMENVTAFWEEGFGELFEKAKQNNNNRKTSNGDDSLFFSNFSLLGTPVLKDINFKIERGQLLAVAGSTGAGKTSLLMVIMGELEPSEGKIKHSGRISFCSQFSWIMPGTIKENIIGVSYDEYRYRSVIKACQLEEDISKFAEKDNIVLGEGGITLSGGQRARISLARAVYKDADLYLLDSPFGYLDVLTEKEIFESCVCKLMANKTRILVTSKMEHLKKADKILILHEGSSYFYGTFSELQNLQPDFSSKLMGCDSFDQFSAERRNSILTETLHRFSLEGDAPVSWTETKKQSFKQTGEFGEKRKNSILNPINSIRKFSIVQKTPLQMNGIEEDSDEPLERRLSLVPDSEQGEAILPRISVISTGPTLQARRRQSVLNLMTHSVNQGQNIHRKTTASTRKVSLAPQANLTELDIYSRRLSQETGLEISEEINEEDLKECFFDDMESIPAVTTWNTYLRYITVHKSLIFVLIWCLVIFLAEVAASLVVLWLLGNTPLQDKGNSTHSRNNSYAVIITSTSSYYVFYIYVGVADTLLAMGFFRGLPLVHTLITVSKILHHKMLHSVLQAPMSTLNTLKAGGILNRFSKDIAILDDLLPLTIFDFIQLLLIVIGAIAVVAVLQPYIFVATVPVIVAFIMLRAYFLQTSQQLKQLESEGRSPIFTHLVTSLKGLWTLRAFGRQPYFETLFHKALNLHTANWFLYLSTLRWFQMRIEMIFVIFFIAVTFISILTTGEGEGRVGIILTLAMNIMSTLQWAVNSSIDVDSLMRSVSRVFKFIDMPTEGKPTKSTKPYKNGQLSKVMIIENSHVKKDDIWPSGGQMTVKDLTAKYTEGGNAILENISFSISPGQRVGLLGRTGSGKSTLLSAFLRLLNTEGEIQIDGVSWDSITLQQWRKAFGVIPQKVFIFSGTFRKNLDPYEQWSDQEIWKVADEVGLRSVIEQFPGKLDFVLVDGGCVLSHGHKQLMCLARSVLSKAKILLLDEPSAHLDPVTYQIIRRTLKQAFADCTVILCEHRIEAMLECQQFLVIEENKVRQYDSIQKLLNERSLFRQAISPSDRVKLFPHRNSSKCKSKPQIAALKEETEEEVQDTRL
row,SMILES,EC30
1,"CC(C)COc1cc(F)cc(-c2ccc(C(=O)NS(=O)(=O)c3ccc(OCc4ccccc4)c(N)n3)c(N3C[C@@H](C)CC3(C)C)n2)c1 [Compound 1429, N-[(6-amino-5-benzyloxy-2-pyridyl)sulfonyl]-6-(3-fluoro-5-isobutoxy-phenyl)-2-[(4S)-2,2,4-trimethylpyrrolidin-1-yl]pyridine-3-carboxamide]",+++ (“+++” means <3 uM)
2,"CC(C)COc1cc(F)cc(-c2cc(O)c(C(=O)NS(=O)(=O)c3cccc(N)n3)c(N3[C@H](C)CC[C@@H]3C)n2)c1 [Compound 1430, N-[(6-amino-2-pyridyl)sulfonyl]-2-[(2S,5R)-2,5-dimethylpyrrolidin-1-yl]-6-(3-fluoro-5-isobutoxy-phenyl)-4-hydroxy-pyridine-3-carboxamide]",+++ (“+++” means <3 uM)
3,"CC(C)Cc1ccnn1-c1ccc(C(=O)NS(=O)(=O)c2cccc(N)n2)c(N2C[C@@H](C)CC2(C)C)n1 [Compound 1431, N-[(6-amino-2-pyridyl)sulfonyl]-6-(5-isobutylpyrazol-1-yl)-2-[(4S)-2,2,4-trimethylpyrrolidin-1-yl]pyridine-3-carboxamide]",+++ (“+++” means <3 uM)
4,"CCOC(=O)C1CC=C(c2ccc(C(=O)NS(=O)(=O)c3cccc(N)n3)c(Oc3c(C)cc(C)cc3C)n2)CC1 (stereo not shown) [Compound 1432, ethyl 4-[5-[(6-amino-2-pyridyl)sulfonylcarbamoyl]-6-(2,4,6-trimethylphenoxy)-2-pyridyl]cyclohex-3-ene-1-carboxylate]",+++ (“+++” means <3 uM)
5,"CCOc1cccc2c1CN(Cc1ccc(F)cc1)C2(C)C(=O)NS(=O)(=O)c1cccc(N)n1 (stereo not shown) [Compound 1433, N-[(6-amino-2-pyridyl)sulfonyl]-4-ethoxy-2-[(4-fluorophenyl)methyl]-1-methyl-isoindoline-1-carboxamide]",++ (“++” means between 3 uM and 10 uM)
6,"CC(C)COc1cc(F)cc(-c2ccc(C(=O)NS(=O)(=O)c3cccc(N)n3)c(OC(C)c3cccnc3)n2)c1 (stereo not shown) [Compound 1434, N-[(6-amino-2-pyridyl)sulfonyl]-6-(3-fluoro-5-isobutoxy-phenyl)-2-[1-(3-pyridyl)ethoxy]pyridine-3-carboxamide]",+++ (“+++” means <3 uM)
7,"CC(C)COc1cc(F)cc(-c2ccc(C(=O)NS(=O)(=O)N3CCC[C@H](N)C3)c(N3C[C@@H](C)CC3(C)C)n2)c1 [Compound 1435, N—[[(3S)-3-amino-1-piperidyl]sulfonyl]-6-(3-fluoro-5-isobutoxy-phenyl)-2-[(4S)-2,2,4-trimethylpyrrolidin-1-yl]pyridine-3-carboxamide]",+++ (“+++” means <3 uM)
8,"CC(C)Oc1ccc(-c2nc(N3C[C@@H](C)CC3(C)C)ccc2C(=O)NS(=O)(=O)c2cccc(N)n2)cn1 [Compound 1436, N-[(6-amino-2-pyridyl)sulfonyl]-2-(6-isopropoxy-3-pyridyl)-6-[(4S)-2,2,4-trimethylpyrrolidin-1-yl]pyridine-3-carboxamide]",++ (“++” means between 3 uM and 10 uM)
9,"Cc1cc(C)c(Oc2nc(C3=CCCC4(C3)OCCO4)ccc2C(=O)NS(=O)(=O)c2cccc(N)n2)c(C)c1 [Compound 1437, N-[(6-amino-2-pyridyl)sulfonyl]-6-(1,4-dioxaspiro[4.5]dec-8-en-9-yl)-2-(2,4,6-trimethylphenoxy)pyridine-3-carboxamide]",++ (“++” means between 3 uM and 10 uM)
10,"C[C@@H]1CN(c2nc(C3=CCCCO3)ccc2C(=O)NS(=O)(=O)c2cccc(N)n2)C(C)(C)C1 [Compound 1438, N-[(6-amino-2-pyridyl)sulfonyl]-6-(3,4-dihydro-2H-pyran-6-yl)-2-[(4S)-2,2,4-trimethylpyrrolidin-1-yl]pyridine-3-carboxamide]",+++ (“+++” means <3 uM)
11,"C[C@@H]1CN(c2nc(C3CC(C)(C)CCC3O)ccc2C(=O)NS(=O)(=O)c2cccc(N)n2)C(C)(C)C1 (stereo partly drawn) [Compound 1439, N-[(6-amino-2-pyridyl)sulfonyl]-6-(2-hydroxy-5,5-dimethyl-cyclohexyl)-2-[(4S)-2,2,4-trimethylpyrrolidin-1-yl]pyridine-3-carboxamide]",++ (“++” means between 3 uM and 10 uM)
12,"CC(C)COc1cc(F)cc(-c2ccc(C(=O)NS(=O)(=O)c3cccc(N)n3)c(OCCC3CCCC3)n2)c1 [Compound 1440, N-[(6-amino-2-pyridyl)sulfonyl]-2-(2-cyclopentylethoxy)-6-(3-fluoro-5-isobutoxy-phenyl)pyridine-3-carboxamide]",+++ (“+++” means <3 uM)
13,"CC1CN(c2nc(C(C)(C)C)c(-c3cnn(C)c3)cc2C(=O)NS(=O)(=O)c2cccc(N)n2)C(C)(C)C1 (stereo not shown) [Compound 1441, N-[(6-amino-2-pyridyl)sulfonyl]-6-tert-butyl-5-(1-methylpyrazol-4-yl)-2-(2,2,4-trimethylpyrrolidin-1-yl)pyridine-3-carboxamide]",++ (“++” means between 3 uM and 10 uM)
14,"CC(C)[C@@H](C)Nc1ccc(-c2ccc(C(=O)NS(=O)(=O)c3cccc(N)n3)c(N3[C@H](C)CC[C@@H]3C)n2)cn1 [Compound 1442, N-[(6-amino-2-pyridyl)sulfonyl]-6-[6-[[(1R)-1,2-dimethylpropyl]amino]-3-pyridyl]-2-[(2S,5R)-2,5-dimethylpyrrolidin-1-yl]pyridine-3-carboxamide]",+++ (“+++” means <3 uM)
15,"CC(C)COc1cnn(-c2ccc(C(=O)NS(=O)(=O)c3cccc(N)n3)c(N3C[C@@H](C)CC3(C)C)n2)c1 [Compound 1443, N-[(6-amino-2-pyridyl)sulfonyl]-6-(4-isobutoxypyrazol-1-yl)-2-[(4S)-2,2,4-trimethylpyrrolidin-1-yl]pyridine-3-carboxamide]",+++ (“+++” means <3 uM)
16,"CC(C)COc1cc(F)cc(-c2ccc(C(=O)NS(=O)(=O)c3cccnc3N)c(N3C[C@H](C)CC3(C)C)n2)c1 [Compound 1444, N-[(2-amino-3-pyridyl)sulfonyl]-6-(3-fluoro-5-isobutoxy-phenyl)-2-[(4R)-2,2,4-trimethylpyrrolidin-1-yl]pyridine-3-carboxamide]",+++ (“+++” means <3 uM)
17,"CC(C)COc1cc(F)cc(-c2ccc(C(=O)NS(=O)(=O)N3CCCC(C)(N)C3)c(N3CC(C)CC3(C)C)n2)c1 (stereo not shown) [Compound 1445, N-[(3-amino-3-methyl-1-piperidyl)sulfonyl]-6-(3-fluoro-5-isobutoxy-phenyl)-2-(2,2,4-trimethylpyrrolidin-1-yl)pyridine-3-carboxamide]",+++ (“+++” means <3 uM)
18,"CC(C)COc1cc(F)cc(-c2ccc(C(=O)NS(=O)(=O)c3cccc(N)n3)c(OC3CC3)n2)c1 [Compound 1446, N-[(6-amino-2-pyridyl)sulfonyl]-2-(cyclopropoxy)-6-(3-fluoro-5-isobutoxy-phenyl)pyridine-3-carboxamide]",+++ (“+++” means <3 uM)
19,"CC(C)COc1cc(F)cc(-c2ccc(C(=O)NS(=O)(=O)N3CCCC(N)C3)c(N3CC(C)CC3(C)C)n2)c1 (stereo not shown) [Compound 1447, N-[(3-amino-1-piperidyl)sulfonyl]-6-(3-fluoro-5-isobutoxy-phenyl)-2-(2,2,4-trimethylpyrrolidin-1-yl)pyridine-3-carboxamide]",+++ (“+++” means <3 uM)
20,"CCOc1cccc2c1CN(Cc1c(C)cc(C)cc1C)C2(C)C(=O)NS(=O)(=O)c1ccncc1 (stereo not shown) [Compound 1449, 4-ethoxy-1-methyl-N-(4-pyridylsulfonyl)-2-[(2,4,6-trimethylphenyl)methyl]isoindoline-1-carboxamide]",+++ (“+++” means <3 uM)
21,"CC(C)COc1cc(F)cc(-c2ccc(C(=O)NS(=O)(=O)c3cccc(N)n3)c(OCC3CCCC3)n2)c1 [Compound 1450, N-[(6-amino-2-pyridyl)sulfonyl]-2-(cyclopentylmethoxy)-6-(3-fluoro-5-isobutoxy-phenyl)pyridine-3-carboxamide]",+++ (“+++” means <3 uM)
22,"CC(C)COc1cc(F)cc(-c2ccc(C(=O)NS(=O)(=O)c3cccc(N)n3)c(OC3CCCC3)n2)c1 [Compound 1451, N-[(6-amino-2-pyridyl)sulfonyl]-2-(cyclopentoxy)-6-(3-fluoro-5-isobutoxy-phenyl)pyridine-3-carboxamide]",+++ (“+++” means <3 uM)
23,"COc1cccc(S(=O)(=O)NC(=O)c2ccc(-c3cc(F)cc(OCC(C)C)c3)nc2N2C[C@@H](C)CC2(C)C)c1 [Compound 1452, 6-(3-fluoro-5-isobutoxy-phenyl)-N-(3-methoxyphenyl)sulfonyl-2-[(4S)-2,2,4-trimethylpyrrolidin-1-yl]pyridine-3-carboxamide]",+++ (“+++” means <3 uM)
24,"CCOc1cccc2c1CN(Cc1c(C)cc(C)cc1C)C2(C)C(=O)NS(=O)(=O)c1ccc(O)cc1 (stereo not shown) [Compound 1453, 4-ethoxy-N-(4-hydroxyphenyl)sulfonyl-1-methyl-2-[(2,4,6-trimethylphenyl)methyl]isoindoline-1-carboxamide]",+++ (“+++” means <3 uM)
25,"CCOc1cccc2c1CN(Cc1c(C)cc(C)cc1C)C2(C)C(=O)NS(=O)(=O)c1cccc(N)c1 (stereo not shown) [Compound 1454, N-(3-aminophenyl)sulfonyl-4-ethoxy-1-methyl-2-[(2,4,6-trimethylphenyl)methyl]isoindoline-1-carboxamide]",+++ (“+++” means <3 uM)
26,"C[C@@H]1CN(c2nc(C3=COCC3)ccc2C(=O)NS(=O)(=O)c2cccc(N)n2)C(C)(C)C1 [Compound 1455, N-[(6-amino-2-pyridyl)sulfonyl]-6-(2,3-dihydrofuran-4-yl)-2-[(4S)-2,2,4-trimethylpyrrolidin-1-yl]pyridine-3-carboxamide]",+++ (“+++” means <3 uM)
27,"Cc1cc(C)c(Oc2cc(-c3cc(F)cc(OCC(C)C)c3)cnc2C(=O)NS(=O)(=O)c2cccc(N)n2)c(C)c1 [Compound 1456, N-[(6-amino-2-pyridyl)sulfonyl]-5-(3-fluoro-5-isobutoxy-phenyl)-3-(2,4,6-trimethylphenoxy)pyridine-2-carboxamide]",+++ (“+++” means <3 uM)
28,"CCOc1cccc2c1CN(Cc1c(C)cc(C)cc1C)C2(C)C(=O)NS(=O)(=O)c1ccccc1N (stereo not shown) [Compound 1457, N-(2-aminophenyl)sulfonyl-4-ethoxy-1-methyl-2-[(2,4,6-trimethylphenyl)methyl]isoindoline-1-carboxamide]",+++ (“+++” means <3 uM)
